# Non-standard residues stand in square brackets, D forms with d. Residues, ends and D or L forms follow the SMILES beside them. *: point of attachment. 1Nal = N[C@@H](Cc1cccc2ccccc12)C(=O)O; Phg = N[C@H](C(=O)O)c1ccccc1; Boc = CC(C)(C)OC(=O)*
# Target: T1, Cholecystokinin receptor type A (Cavia porcellus, UniProt Q63931)
# T1 sequence (Q63931 whole entry): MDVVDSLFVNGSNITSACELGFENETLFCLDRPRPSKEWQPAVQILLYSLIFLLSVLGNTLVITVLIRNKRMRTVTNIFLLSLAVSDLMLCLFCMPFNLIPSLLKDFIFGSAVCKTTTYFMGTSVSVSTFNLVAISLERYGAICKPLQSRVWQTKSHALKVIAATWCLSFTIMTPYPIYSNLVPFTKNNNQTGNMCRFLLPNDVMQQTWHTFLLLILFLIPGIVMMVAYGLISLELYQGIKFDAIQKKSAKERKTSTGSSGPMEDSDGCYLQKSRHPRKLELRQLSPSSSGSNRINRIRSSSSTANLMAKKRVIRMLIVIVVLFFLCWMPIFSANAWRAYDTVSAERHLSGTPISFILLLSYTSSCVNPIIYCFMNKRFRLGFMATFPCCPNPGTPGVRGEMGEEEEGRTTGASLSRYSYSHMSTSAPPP
# Test: Tested for the inhibition of [3H]pCCK-8 binding to Cholecystokinin type A receptor in pancreatic membranes of guinea-pig
# Assay type: cell membranes
row,Ki [nM],SMILES
1,2400,CC(C)(C)OC(=O)N[C@@H](Cc1c[nH]c2ccccc12)C(=O)N[C@@H](Cc1ccccc1)C(=O)N[C@@H](CC(=O)O)C(=O)N[C@@H](Cc1cccc2ccccc12)C(N)=O (Boc-WFD[1Nal]-NH2)
2,1000,CN(C)C(=O)[C@H](Cc1cccc2ccccc12)NC(=O)[C@H](CC(=O)O)NC(=O)[C@@H](NC(=O)[C@H](Cc1c[nH]c2ccccc12)NC(=O)OC(C)(C)C)c1ccccc1 (Boc-W[Phg]D[1Nal]-NMe2)
3,1100,CC(C)(C)OC(=O)N[C@@H](Cc1c[nH]c2ccccc12)C(=O)N[C@H](C(=O)N[C@@H](CC(=O)O)C(=O)N[C@@H](Cc1cccc2ccccc12)C(N)=O)c1ccccc1 (Boc-W[Phg]D[1Nal]-NH2)
4,1100,CCCC[C@@H](NC(=O)CC(=O)N[C@@H](Cc1c[nH]c2ccccc12)C(=O)N(C)[C@@H](CCCC)C(=O)N[C@@H](CC(=O)O)C(=O)N[C@@H](Cc1ccccc1)C(N)=O)NC(=O)[C@H](Cc1ccc(CS(=O)(=O)O)cc1)NC(=O)OC(C)(C)C
